Data published in PubChem BioAssay (NCI).
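A five-concentration, 48-hour dose response in 96-well plates underlies each endpoint, interpolated linearly between surrounding concentrations. TGI: total growth inhibition.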

Experiments:
Test in all cases: growth of human tumour cells (NCI), 48 h
KM12 colon = system: KM12 colon
NCI/ADR-RES ovarian = system: NCI/ADR-RES ovarian
TK-10 renal = system: TK-10 renal
HT29 colon = system: HT29 colon
M19-MEL melanoma = system: M19-MEL melanoma
A549 NSCLC = system: A549 NSCLC
DLD-1 colon = system: DLD-1 colon
MALME-3M melanoma = system: MALME-3M melanoma
U251 CNS = system: U251 CNS
HS 578T breast = system: HS 578T breast
PC-3 prostate = system: PC-3 prostate
HCC-2998 colon = system: HCC-2998 colon
MDA-MB-435 = system: MDA-MB-435
OVCAR-5 ovarian = system: OVCAR-5 ovarian
SF-268 CNS = system: SF-268 CNS
HL-60(TB) leukemia = system: HL-60(TB) leukemia
SNB-75 CNS = system: SNB-75 CNS
M14 melanoma = system: M14 melanoma
NCI-H460 lung = system: NCI-H460 lung
MCF7 breast = system: MCF7 breast
OVCAR-8 ovarian = system: OVCAR-8 ovarian
LXFL 529 NSCLC = system: LXFL 529 NSCLC
DMS 273 small cell lung = system: DMS 273 small cell lung
UO-31 renal = system: UO-31 renal
SNB-78 CNS = system: SNB-78 CNS
OVCAR-3 ovarian = system: OVCAR-3 ovarian
A498 renal = system: A498 renal
KM20L2 colon = system: KM20L2 colon
HCT-116 colon = system: HCT-116 colon
ACHN renal = system: ACHN renal
LOX IMVI melanoma = system: LOX IMVI melanoma
CCRF-CEM leukemia = system: CCRF-CEM leukemia
786-0 renal = system: 786-0 renal
K-562 leukemia = system: K-562 leukemia
IGROV1 ovarian = system: IGROV1 ovarian
NCI-H522 lung = system: NCI-H522 lung
RXF 393 renal = system: RXF 393 renal
SW-620 colon = system: SW-620 colon
SK-MEL-5 melanoma = system: SK-MEL-5 melanoma
RPMI-8226 leukemia = system: RPMI-8226 leukemia
SNB-19 CNS = system: SNB-19 CNS
HCT-15 colon = system: HCT-15 colon
SR leukemia = system: SR leukemia
BT-549 breast = system: BT-549 breast
MDA-MB-231 breast = system: MDA-MB-231 breast
COLO 205 colon = system: COLO 205 colon
UACC-62 melanoma = system: UACC-62 melanoma
T-47D breast = system: T-47D breast
HOP-18 NSCLC = system: HOP-18 NSCLC
SK-MEL-2 melanoma = system: SK-MEL-2 melanoma
HOP-92 NSCLC = system: HOP-92 NSCLC
EKVX NSCLC = system: EKVX NSCLC
SN12C renal = system: SN12C renal
NCI-H23 lung = system: NCI-H23 lung
SF-295 CNS = system: SF-295 CNS
SK-MEL-28 melanoma = system: SK-MEL-28 melanoma
UACC-257 melanoma = system: UACC-257 melanoma
OVCAR-4 ovarian = system: OVCAR-4 ovarian
CAKI-1 renal = system: CAKI-1 renal
MDA-N = system: MDA-N
SF-539 CNS = system: SF-539 CNS
NCI-H226 lung = system: NCI-H226 lung
HOP-62 NSCLC = system: HOP-62 NSCLC
DU-145 prostate = system: DU-145 prostate
DMS 114 small cell lung = system: DMS 114 small cell lung
XF 498 CNS = system: XF 498 CNS
SK-OV-3 ovarian = system: SK-OV-3 ovarian
RXF-631 renal = system: RXF-631 renal
MOLT-4 leukemia = system: MOLT-4 leukemia

## Cn1c2ccccc2c2ccc3c(c21)C(=O)C=CC3=O
KM12 colon
  TGI: 60.7 µM
NCI/ADR-RES ovarian
  TGI: 14.4 µM
TK-10 renal
  TGI: 12.2 µM
HT29 colon
  TGI: 26 µM
M19-MEL melanoma
  TGI: 24.5 µM
A549 NSCLC
  TGI: 61 µM
DLD-1 colon
  TGI: 6.02 µM
MALME-3M melanoma
  TGI: 12.2 µM
U251 CNS
  TGI: 25.1 µM
HS 578T breast
  TGI: 58.5 µM
PC-3 prostate
  TGI: 12.2 µM
HCC-2998 colon
  TGI: 15.1 µM
MDA-MB-435
  TGI: 10.9 µM
OVCAR-5 ovarian
  TGI: 28.3 µM
SF-268 CNS
  TGI: 30.5 µM
HL-60(TB) leukemia
  TGI: 11.8 µM
SNB-75 CNS
  TGI: 32.5 µM
M14 melanoma
  TGI: 22.1 µM
NCI-H460 lung
  TGI: 46.4 µM
MCF7 breast
  TGI: 8.96 µM
OVCAR-8 ovarian
  TGI: 31.1 µM
LXFL 529 NSCLC
  TGI: 8.26 µM
DMS 273 small cell lung
  TGI: 25.8 µM
UO-31 renal
  TGI: 13.7 µM
SNB-78 CNS
  TGI: 48.4 µM
OVCAR-3 ovarian
  TGI: 20.9 µM
A498 renal
  TGI: > 59.4 µM
KM20L2 colon
  TGI: 33.9 µM
HCT-116 colon
  TGI: 10.9 µM
ACHN renal
  TGI: 8.33 µM
LOX IMVI melanoma
  TGI: 10.5 µM
CCRF-CEM leukemia
  TGI: 14.5 µM
786-0 renal
  TGI: 9.2 µM
K-562 leukemia
  TGI: > 45.1 µM
IGROV1 ovarian
  TGI: 29.9 µM
NCI-H522 lung
  TGI: 6.36 µM
RXF 393 renal
  TGI: 5.96 µM
SW-620 colon
  TGI: 4.46 µM
SK-MEL-5 melanoma
  TGI: 31 µM
RPMI-8226 leukemia
  TGI: 14.6 µM
SNB-19 CNS
  TGI: 46.4 µM
HCT-15 colon
  TGI: 12.1 µM
SR leukemia
  TGI: 15.9 µM
BT-549 breast
  TGI: 18.9 µM
MDA-MB-231 breast
  TGI: 18.7 µM
COLO 205 colon
  TGI: 6.9 µM
UACC-62 melanoma
  TGI: 26.7 µM
T-47D breast
  TGI: 10.7 µM
HOP-18 NSCLC
  TGI: 5.58 µM
SK-MEL-2 melanoma
  TGI: 29.9 µM
HOP-92 NSCLC
  TGI: 4.66 µM
EKVX NSCLC
  TGI: 38.6 µM
SN12C renal
  TGI: 26.5 µM
NCI-H23 lung
  TGI: 27.3 µM
SF-295 CNS
  TGI: 42.1 µM
SK-MEL-28 melanoma
  TGI: 25.7 µM
UACC-257 melanoma
  TGI: 23.1 µM
OVCAR-4 ovarian
  TGI: 4.08 µM
CAKI-1 renal
  TGI: 11.8 µM
MDA-N
  TGI: 19.3 µM
SF-539 CNS
  TGI: 26.3 µM
NCI-H226 lung
  TGI: 51 µM
HOP-62 NSCLC
  TGI: 48 µM
DU-145 prostate
  TGI: 29.5 µM
DMS 114 small cell lung
  TGI: 21.5 µM
XF 498 CNS
  TGI: 4.88 µM
SK-OV-3 ovarian
  TGI: 33.2 µM

## O=C(NC1C2CC3CC(C2)CC1C3)c1ccncn1 (stereo unspecified)
KM12 colon
  TGI: > 100 µM
HT29 colon
  TGI: > 100 µM
M19-MEL melanoma
  TGI: > 100 µM
A549 NSCLC
  TGI: > 100 µM
DLD-1 colon
  TGI: > 100 µM
MALME-3M melanoma
  TGI: > 100 µM
U251 CNS
  TGI: > 100 µM
HCC-2998 colon
  TGI: > 100 µM
OVCAR-5 ovarian
  TGI: > 100 µM
SF-268 CNS
  TGI: > 100 µM
HL-60(TB) leukemia
  TGI: > 100 µM
SNB-75 CNS
  TGI: > 100 µM
M14 melanoma
  TGI: > 100 µM
NCI-H460 lung
  TGI: > 100 µM
OVCAR-8 ovarian
  TGI: > 100 µM
LXFL 529 NSCLC
  TGI: > 100 µM
DMS 273 small cell lung
  TGI: > 100 µM
UO-31 renal
  TGI: > 100 µM
SNB-78 CNS
  TGI: > 100 µM
OVCAR-3 ovarian
  TGI: > 100 µM
A498 renal
  TGI: > 100 µM
KM20L2 colon
  TGI: > 100 µM
HCT-116 colon
  TGI: > 100 µM
ACHN renal
  TGI: > 100 µM
CCRF-CEM leukemia
  TGI: > 100 µM
786-0 renal
  TGI: > 100 µM
K-562 leukemia
  TGI: > 100 µM
IGROV1 ovarian
  TGI: > 100 µM
NCI-H522 lung
  TGI: > 100 µM
SW-620 colon
  TGI: > 100 µM
SK-MEL-5 melanoma
  TGI: > 100 µM
SNB-19 CNS
  TGI: > 100 µM
HCT-15 colon
  TGI: > 100 µM
COLO 205 colon
  TGI: > 100 µM
UACC-62 melanoma
  TGI: > 100 µM
SK-MEL-2 melanoma
  TGI: > 100 µM
HOP-92 NSCLC
  TGI: > 100 µM
EKVX NSCLC
  TGI: > 100 µM
SN12C renal
  TGI: > 100 µM
NCI-H23 lung
  TGI: > 100 µM
SF-295 CNS
  TGI: > 100 µM
SK-MEL-28 melanoma
  TGI: > 100 µM
UACC-257 melanoma
  TGI: > 100 µM
OVCAR-4 ovarian
  TGI: > 100 µM
CAKI-1 renal
  TGI: > 100 µM
SF-539 CNS
  TGI: > 100 µM
NCI-H226 lung
  TGI: > 100 µM
HOP-62 NSCLC
  TGI: > 100 µM
DMS 114 small cell lung
  TGI: > 100 µM
RXF-631 renal
  TGI: > 100 µM

## C/C(CC(=O)Nc1ccc(C)c(C)c1)=N\NC(N)=S
KM12 colon
  TGI: > 100 µM
TK-10 renal
  TGI: > 100 µM
HT29 colon
  TGI: > 100 µM
A549 NSCLC
  TGI: > 100 µM
DLD-1 colon
  TGI: > 100 µM
MALME-3M melanoma
  TGI: > 100 µM
U251 CNS
  TGI: > 100 µM
HCC-2998 colon
  TGI: > 100 µM
OVCAR-5 ovarian
  TGI: > 100 µM
SF-268 CNS
  TGI: > 100 µM
HL-60(TB) leukemia
  TGI: > 100 µM
SNB-75 CNS
  TGI: > 100 µM
M14 melanoma
  TGI: > 100 µM
NCI-H460 lung
  TGI: > 100 µM
OVCAR-8 ovarian
  TGI: > 100 µM
LXFL 529 NSCLC
  TGI: > 100 µM
DMS 273 small cell lung
  TGI: > 100 µM
UO-31 renal
  TGI: > 100 µM
SNB-78 CNS
  TGI: > 100 µM
OVCAR-3 ovarian
  TGI: > 100 µM
KM20L2 colon
  TGI: > 100 µM
HCT-116 colon
  TGI: > 100 µM
MOLT-4 leukemia
  TGI: > 100 µM
ACHN renal
  TGI: > 100 µM
LOX IMVI melanoma
  TGI: > 100 µM
CCRF-CEM leukemia
  TGI: > 100 µM
786-0 renal
  TGI: > 100 µM
K-562 leukemia
  TGI: > 100 µM
IGROV1 ovarian
  TGI: > 100 µM
NCI-H522 lung
  TGI: > 100 µM
RXF 393 renal
  TGI: > 100 µM
SW-620 colon
  TGI: > 100 µM
SK-MEL-5 melanoma
  TGI: > 100 µM
RPMI-8226 leukemia
  TGI: > 100 µM
COLO 205 colon
  TGI: > 100 µM
UACC-62 melanoma
  TGI: > 100 µM
SK-MEL-2 melanoma
  TGI: > 100 µM
HOP-92 NSCLC
  TGI: > 100 µM
EKVX NSCLC
  TGI: > 100 µM
NCI-H23 lung
  TGI: > 100 µM
SF-295 CNS
  TGI: > 100 µM
SK-MEL-28 melanoma
  TGI: > 100 µM
UACC-257 melanoma
  TGI: > 100 µM
SF-539 CNS
  TGI: > 100 µM
NCI-H226 lung
  TGI: > 100 µM
HOP-62 NSCLC
  TGI: > 100 µM
DMS 114 small cell lung
  TGI: > 100 µM
RXF-631 renal
  TGI: > 100 µM
SK-OV-3 ovarian
  TGI: > 100 µM
